Source: EP4745131A1, “PYRIMIDINAMINE NUAK INHIBITOR AS WELL AS PREPARATION METHOD THEREFOR AND USE THEREOF” (Technoderma Medicines Inc., priority 2023, dated 2025)

Assays:
NUAK1 = target: T1, NUAK1 (Homo sapiens, UniProt O60285); test: Kinase activity assay, P81 filter paper binding hot-spot technique (33P-ATP, CHKtide substrate); type: biochemical; details: final concentration of NUAK1 10 nM; 20 µM CHKtide substrate; 33P-labeled ATP; 2 hours at room temperature; read-out: IC50 (nM) of Test Compounds against NUAK1
T1 sequence (O60285 1-661): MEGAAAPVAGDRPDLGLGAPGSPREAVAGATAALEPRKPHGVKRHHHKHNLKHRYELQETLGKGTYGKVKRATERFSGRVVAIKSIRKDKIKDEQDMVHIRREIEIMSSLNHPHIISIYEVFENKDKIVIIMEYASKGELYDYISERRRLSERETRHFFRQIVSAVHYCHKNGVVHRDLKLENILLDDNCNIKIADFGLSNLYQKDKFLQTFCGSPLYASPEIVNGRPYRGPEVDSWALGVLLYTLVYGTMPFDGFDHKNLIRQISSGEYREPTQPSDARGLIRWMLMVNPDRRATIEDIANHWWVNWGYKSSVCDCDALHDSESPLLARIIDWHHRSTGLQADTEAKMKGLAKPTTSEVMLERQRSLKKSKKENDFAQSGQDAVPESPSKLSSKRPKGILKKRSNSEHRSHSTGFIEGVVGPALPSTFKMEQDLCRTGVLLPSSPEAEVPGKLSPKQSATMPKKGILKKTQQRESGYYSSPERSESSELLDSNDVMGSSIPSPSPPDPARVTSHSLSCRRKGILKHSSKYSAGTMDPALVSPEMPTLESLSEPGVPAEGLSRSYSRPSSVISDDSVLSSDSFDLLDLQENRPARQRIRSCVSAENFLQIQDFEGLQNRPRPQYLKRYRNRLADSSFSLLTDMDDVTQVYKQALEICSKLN
Protocol: (§1) The inhibitory activity of the pyrimidinamine small molecules involved in the present application against NUAK1 and NUAK2 kinases was determined using a kinase activity assay based on the P81 filter paper binding hot-spot technique (Nat Biotechnol. 2011, 29:1039). A brief description is as follows:
(§2) The assay buffer system contained 20 mM Hepes (pH 7.5), 10 mM MgCl2, 1 mM EGTA, 0.01% Brij35 (L23 polyoxyethylene lauryl ether), 0.02 mg/mL BSA (bovine serum albumin), 0.1 mM Na3VO4, 2 mM DTT, and 1% DMSO.
(§3) • 1. A 20 µM substrate solution was prepared with freshly prepared test buffer and CHKtide peptide fragments (Sanchez Y. Science. 1997, 277: 1497-1501) were used as a substrate. • 2. Kinases were added and mixed gently (a final concentration of NUAK1 was 10 nM; and a final concentration of NUAK2 was 50 nM). • 3. Test compounds dissolved in 100% DMSO were each added to the above kinase reaction mixture solution via Acoustic Droplet Ejection (Echo550; nanoliter) and the mixture was incubated for 5 minutes at room temperature. • 4. ^33P-labeled ATP (a ratio of unlabeled ATP to labeled ATP was 25:1 or 2.5:1) was added. • 5. The mixture was incubated for 2 hours at room temperature. • 6. Kinase activity was tested using the P81 filter paper combined with hotspot technology.
(§4) The IC50 values of the test compounds against NUAK1/NUAK2 were calculated according to the above test. For specific results, see Table 1.
(§5) The IC50 values were calculated by using a formula derived from sigmoidal dose-response curve (variable slope): Y = Bottom + (Top-Bottom)/(1+10^((LogEC50-X)*Slope, where X is the logarithm of compound concentration, Y is the response (inhibition rate of kinase activity), and Y rises from bottom to top along the sigmoidal curve as the concentration increases. Table 1: IC50 (nM) of Test Compounds of the Present Application against NUAK1/NUAK2

NUAK2 = target: T2, NUAK2 (Homo sapiens, UniProt Q9H093); test: as above; type: biochemical; details: final concentration of NUAK2 50 nM; 20 µM CHKtide substrate; 33P-labeled ATP; 2 hours at room temperature; read-out: IC50 (nM) of Test Compounds against NUAK2
T2 sequence (Q9H093 1-628): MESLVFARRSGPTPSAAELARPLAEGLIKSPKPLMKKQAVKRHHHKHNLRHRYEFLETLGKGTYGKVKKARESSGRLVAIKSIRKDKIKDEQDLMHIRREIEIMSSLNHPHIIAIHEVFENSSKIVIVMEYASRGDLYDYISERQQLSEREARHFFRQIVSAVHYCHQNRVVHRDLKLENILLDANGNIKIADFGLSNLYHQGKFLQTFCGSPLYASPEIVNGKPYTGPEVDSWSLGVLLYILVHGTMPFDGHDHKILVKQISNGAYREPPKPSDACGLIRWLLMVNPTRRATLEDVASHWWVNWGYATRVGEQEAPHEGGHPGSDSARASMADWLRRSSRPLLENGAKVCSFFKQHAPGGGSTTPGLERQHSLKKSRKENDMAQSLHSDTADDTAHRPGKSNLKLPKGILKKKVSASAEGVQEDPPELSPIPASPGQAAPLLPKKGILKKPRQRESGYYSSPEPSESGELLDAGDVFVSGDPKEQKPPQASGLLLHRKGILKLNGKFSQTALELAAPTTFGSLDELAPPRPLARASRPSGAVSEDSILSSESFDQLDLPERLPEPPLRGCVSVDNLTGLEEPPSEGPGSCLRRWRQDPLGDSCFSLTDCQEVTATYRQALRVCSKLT
Protocol: as §1, §2, §3, §4, §5

Molecule | IC50 (NUAK1) | IC50 (NUAK2)
N#CCNC(=O)c1cnn(-c2ccnc(Nc3cnn(C4CCNCC4)c3)n2)c1 [TDM-181140, N-(Cyanomethyl)-1-(2-((1-(piperidin-4-yl)-1H-pyrazol-4-yl)amino)pyrimidin-4-yl)-1H-pyrazole-4-carboxamide] | 305 nM | 210 nM
COc1cc(C2CCNCC2)ccc1Nc1nccc(-n2ccc(C(=O)NCC#N)c2)n1 [TDM-181152, N-(Cyanomethyl)-1-(2-((2-methoxy-4-(piperidin-4-yl)phenyl)amino)pyrimidin-4-yl)-1H-pyrrole-3-carboxamide] | 977 nM | –
1-(5-chloro-2-((2-methoxy-4-(piperidin-4-yl)phenyl)amino)pyrimidin-4-yl)-N-(cyanomethyl)-1H-pyrrole-3-carboxamide [TDM-181157] | 194 nM | 487 nM
COc1cc(C2CCN(C)CC2)ccc1Nc1nccc(-n2ccc(C(=O)NCC#N)c2)n1 [TDM-181156, N-(cyanomethyl)-1-(2-((2-methoxy-4-(1-methylpiperidin-4-yl)phenyl)amino)pyrimidin-4-yl)-1H-pyrrole-3-carboxamide] | 607 nM | –
CCCS(=O)(=O)Nc1cnn(-c2nc(Nc3cnc(C4CCNCC4)s3)ncc2Cl)c1 [TDM-181179, N-(1-(5-Chloro-2-((2-(piperidin-4-yl)thiazol-5-yl)amino)pyrimidin-4-yl)-1H-pyrazol-4-yl)propane-1-sulfonamide] | 6 nM | 42 nM
COc1cc(N2CCN(C)CC2)ccc1Nc1ncc(Cl)c(-n2ccc(C(=O)NCC#N)c2)n1 [TDM-181155, 1-(5-Chloro-2-((2-methoxy-4-(4-methylpiperazin-1-yl)phenyl)amino)pyrimidin-4-yl)-N-(cyanomethyl)-1H-pyrrole-3-carboxamide] | 43 nM | 69 nM
CNC(=O)c1ccn(-c2nc(Nc3ccc(N4CCN(C)CC4)cc3)ncc2Cl)c1 [TDM-181170, 1-(5-Chloro-2-((4-(4-methylpiperazin-1-yl)phenyl)amino)pyrimidin-4-yl)-N-methyl-1H-pyrrole-3-carboxamide] | 14 nM | 78 nM
2-(1-(piperidin-4-yl)-1H-pyrazol-4-yl)aminopyrimidin-4-yl)-1H-pyrazol-4-ylpropanesulfonamide [TDM-181135] | 34 nM | 265 nM
CCS(=O)(=O)N1CCC(n2cc(-c3ccnc(Nc4cnn(C5CCNCC5)c4)n3)cn2)C1 (centres unmarked) [TDM-181134, 4-(1-(1-(Ethylsulfonyl)pyrrolidin-3-yl)-1H-pyrazol-4-yl)-N-(1-(piperidin-4-yl)-1H-pyrazol-4-yl)pyrimidin-2-amine] | 122 nM | 622 nM
CN1CCN(c2ccc(Nc3nccc(-n4ccc(C(=O)NCC#N)c4)n3)cc2)CC1 [TDM-181147, N-(Cyanomethyl)-1-(2-((4-(4-methylpiperazin-1-yl)phenyl)amino)pyrimidin-4-yl)-1H-pyrrole-3-carboxamide] | 19 nM | 77 nM
CN1CCN(c2ccc(Nc3ncc(Cl)c(-n4ccc(C(=O)NCC5CC5)c4)n3)cc2)CC1 [TDM-181171, 1-(5-Chloro-2-((4-(4-methylpiperazin-1-yl)phenyl)amino)pyrimidin-4-yl)-N-(cyclopropylmethyl)-1H-pyrrole-3-carboxamide] | 9 nM | 50 nM
COc1cc(C2CCN(C)C2)ccc1Nc1nccc(-n2ccc(C(=O)NCC#N)c2)n1 (centres unmarked) [TDM-181158] | 394 nM | –
CCCS(=O)(=O)Nc1cnn(-c2nc(Nc3cnn(C4CCNCC4)c3)ncc2Cl)c1 [TDM-181177, N-(1-(5-Chloro-2-(1-(piperidin-4-yl)-1H-pyrazol-4-ylamino)pyrimidin-4-yl)-1H-pyrazol-4-yl)propane-1-sulfonamide] | 9 nM | 72 nM
N#CCNC(=O)c1ccn(-c2ccnc(Nc3cnn(C4CCNCC4)c3)n2)c1 [TDM-181153, N-(Cyanomethyl)-1-(2-((1-(piperidin-4-yl)-1H-pyrazol-4-yl)amino)pyrimidin-4-yl)-1H-pyrrole-3-carboxamide] | 84 nM | 107 nM
N#CCNC(=O)c1ccn(-c2ccnc(Nc3ccc(C4CCNCC4)cc3)n2)c1 [TDM-181154, N-(cyanomethyl)-1-(2-((4-(piperidin-4-yl)phenyl)amino)pyrimidin-4-yl)-1H-pyrrole-3-carboxamide] | 58 nM | 239 nM
COc1cc(N2CCN(C)CC2)ccc1Nc1nccc(-n2cc(C(=O)NCC#N)cn2)n1 [TDM-181139, N-(Cyanomethyl)-1-(2-((2-methoxy-4-(4-methylpiperazin-1-yl)phenyl)amino)pyrimidin-4-yl)-1H-pyrazole-4-carboxamide] | 474 nM | 991 nM
CN1CCC(n2cc(Nc3nccc(-c4cnn(C(=O)C5CC5)c4)n3)cn2)CC1 [TDM-181169, Cyclopropyl(4-(2-((1-(1-methylpiperidin-4-yl)-1H-pyrazol-4-yl)amino)pyrimidin-4-yl)-1H-pyrazol-1-yl)methanone] | 209 nM | 495 nM
COc1cc(N2CCN(C)CC2)ccc1Nc1nccc(-n2ccc(C(=O)NCC#N)c2)n1 [TDM-181146, N-(Cyanomethyl)-1-(2-((2-methoxy-4-(4-methylpiperazin-1-yl)phenyl)amino)pyrimidin-4-yl)-1H-pyrrole-3-carboxamide] | 260 nM | 602 nM
O=C(Nc1cnn(-c2ccnc(Nc3cnn(C4CCNCC4)c3)n2)c1)[C@@H]1CC1(F)F [TDM-181159, 2,2-Difluoro-N-(1-2-((1-(piperidin-4-yl)-1H-pyrazol-4-ylamino)pyrimidin-4-yl)-1H-pyrazol-4-yl)cyclopropane-1-carboxamide] | 337 nM | 419 nM
